# PubChem BioAssay (NCI)
# Values joined by “and” are separate entries in the source; they are usually repeats but may differ in a detail not shown here. Equal values may be shown once.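 Following 48 hours of exposure in 96-well plates, responses at five concentrations were used to interpolate endpoints linearly. Here, GI50 denotes the concentration required for 50% inhibition of growth. TGI is the concentration that stops growth completely.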
# Key:
# Experiment in all cases: NCI tumour cell line growth inhibition, 48 h
# [1] = system: EKVX NSCLC
# [2] = system: MDA-MB-435
# [3] = system: NCI-H460 lung
# [4] = system: NCI-H522 lung
# [5] = system: OVCAR-8 ovarian
# [6] = system: SF-268 CNS
# [7] = system: SF-295 CNS
# [8] = system: SF-539 CNS
# [9] = system: SNB-19 CNS
# [10] = system: U251 CNS
Structure (SMILES),GI50 [1],TGI [1],GI50 [2],TGI [2],GI50 [3],TGI [3],GI50 [4],TGI [4],GI50 [5],TGI [5],GI50 [6],TGI [6],GI50 [7],TGI [7],GI50 [8],TGI [8],GI50 [9],TGI [9],GI50 [10],TGI [10]
Cc1ccc(-c2csc(/N=C3\C(=O)Nc4ccccc43)n2)cc1,1.52 µM,5.86 µM,1.38 µM,2.87 µM,1.76 µM,3.74 µM,1.51 µM,3.49 µM,2.47 µM,6.9 µM,1.52 µM,3.5 µM,1.32 µM,2.87 µM,1.71 µM,3.45 µM,1.52 µM,3.19 µM,1.46 µM,3.05 µM
C=C1C(=O)O[C@H]2C[C@@H]1CC/C(C)=C/CC/C(C)=C/CC[C@H]2C,19.7 µM,42.8 µM,7.51 µM,27.2 µM,23.2 µM,> 59 µM,23.5 µM,> 66.3 µM,15.7 µM,39.3 µM,19.3 µM,46.1 µM,13.4 µM,32.7 µM,15.7 µM,33.6 µM,23.2 µM,55.2 µM,14.6 µM,28.3 µM
CN[C@H]1C=C[C@@H]2/C=C(C)/C=C/[C@@H](C)[C@H]([C@H](C)[C@H](O)[C@@H](C)NC(C)=O)OC(=O)/C=C/C=C(C)\C=C\[C@]2(C)C1,,> 49 µM,< 0.001 µM and 0.0049 µM,9.14 µM,0.0107 µM,> 49 µM,0.045 µM and 0.0229 µM,13.1 µM,0.00922 µM,> 49 µM,0.0821 µM and 0.042 µM,> 49 µM,< 0.001 µM and 0.0049 µM,,< 0.001 µM and 0.0049 µM,12.8 µM,0.0795 µM and 0.0718 µM,> 49 µM,< 0.001 µM and 0.0049 µM,> 49 µM
Cn1cc(C2=C(c3cn(CCCCN)c4ccccc34)C(=O)NC2=O)c2ccccc21,,,> 25 µM,> 25 µM,> 25 µM,> 25 µM,> 25 µM,> 25 µM,> 25 µM,> 25 µM,> 25 µM,> 25 µM,,> 25 µM,> 25 µM,> 25 µM,> 25 µM,> 25 µM,> 25 µM,> 25 µM
Cc1cnc(NC(=O)Nc2cc(Br)c(C)cc2OC[C@@H]2CNCCO2)cn1,3.22 µM and 3.24 µM,> 10 µM and 15.9 µM,0.459 µM and 0.378 µM,3.58 µM and 2.43 µM,1.47 µM and 0.928 µM,> 10 µM and 5.79 µM,2.1 µM and 2.46 µM,> 10 µM and 11.5 µM,0.666 µM and 0.664 µM,> 10 µM and 12.8 µM,3.66 µM and 2.33 µM,> 10 µM and 13.6 µM,0.326 µM and 0.263 µM,> 10 µM and 3.02 µM,0.457 µM and 0.281 µM,3.87 µM and 0.805 µM,2.52 µM and 1.42 µM,> 10 µM and 14.3 µM,2.44 µM and 3.07 µM,> 10 µM and 13.9 µM
COc1ccc(-c2cc(=O)c3ccc(C)nc3[nH]2)cc1,,> 100 µM,42.7 µM,> 100 µM,> 100 µM,> 100 µM,,> 100 µM,,> 100 µM,,> 100 µM,88.3 µM,> 100 µM,,> 100 µM,,> 100 µM,> 100 µM,> 100 µM
C=C1C(O)C2C(=C(CCc3ccccc3)C13CC3)C(=O)C(C)(CO)C2O (centres undefined),> 100 µM,> 100 µM,> 100 µM,> 100 µM,> 100 µM,> 100 µM,> 100 µM,> 100 µM,> 100 µM,> 100 µM,> 100 µM,> 100 µM,> 100 µM,> 100 µM,> 100 µM,> 100 µM,> 100 µM,> 100 µM,> 100 µM,> 100 µM
CC(=O)OCC1OC(n2c(-c3ccc(Cl)cc3)ccc(C#N)c2=S)C(OC(C)=O)C(OC(C)=O)C1OC(C)=O (centres undefined),,> 82.9 µM and 80.1 µM,,> 100 µM,,> 100 µM,27.8 µM and 61.6 µM,> 100 µM,16.4 µM and 34.9 µM,> 100 µM,5.5 µM and 34.9 µM,> 100 µM,13.8 µM and > 100 µM,35 µM and > 100 µM,,99 µM and > 100 µM,14.8 µM and 42.2 µM,58.4 µM and > 100 µM,10.4 µM and 61.4 µM,40 µM and > 100 µM
CC(C)=CCc1c(OC(=O)c2c(C)cc(O)cc2O)cc(CO)c(CO)c1O,,> 100 µM,,45.9 µM,,39.2 µM,,39.2 µM,,63.9 µM,,85 µM,,37.5 µM,,38 µM,,21.2 µM,,40 µM
CC(C)CCC(=O)c1ccoc1,,> 100 µM,,> 100 µM,,> 100 µM,,,,> 100 µM,,> 100 µM,,> 100 µM,,> 100 µM,,> 100 µM,,> 100 µM
CN(C)CCCNC(=O)c1cc(NC(=O)c2cc(NC(=O)CCc3c[nH]c4ccccc34)cn2C)cn1C,> 100 µM,> 100 µM,> 100 µM,> 100 µM,> 100 µM,> 100 µM,> 100 µM,> 100 µM,> 100 µM,> 100 µM,> 100 µM,> 100 µM,> 100 µM,> 100 µM,> 100 µM,> 100 µM,> 100 µM,> 100 µM,> 100 µM,> 100 µM
O=C1c2ccccc2-c2c1c1c(=O)[nH]c3ccccc3c1n2Cc1ccccc1,30.4 µM,99.5 µM,> 100 µM,> 100 µM,61.7 µM,> 100 µM,42.7 µM,> 100 µM,51 µM,> 100 µM,17.7 µM,48.7 µM,17.2 µM,40.9 µM,17.8 µM,40.5 µM,25.1 µM,65.5 µM,16.6 µM,34.1 µM
Cc1sc2nc(-c3ccncc3)c(/C=N/N=C(N)N)n2c1C,75.9 µM,> 100 µM,26.2 µM,> 100 µM,27.3 µM,> 100 µM,,,,,25.7 µM,90.1 µM,24.9 µM,72.7 µM,51.9 µM,> 100 µM,36.3 µM,> 100 µM,30.5 µM,> 100 µM
O=c1c(Oc2ccc(F)cc2F)cc2cnc(NC3CCOCC3)nc2n1CCCO,,,> 25 µM,> 25 µM,> 25 µM,> 25 µM,> 25 µM,> 25 µM,> 25 µM,> 25 µM,> 25 µM,> 25 µM,> 25 µM,> 25 µM,> 25 µM,> 25 µM,> 25 µM,> 25 µM,> 25 µM,> 25 µM
Nc1ccc(C2=NN(c3ccccc3)C(c3ccc(Cl)cc3)C2)cc1 (centres undefined),,,2.51 µM,6.58 µM,3.94 µM,16.3 µM,1.51 µM,3.27 µM,3.15 µM,13.2 µM,4.22 µM,19.8 µM,9 µM,24.9 µM,1.93 µM,4.21 µM,2.9 µM,14.1 µM,1.47 µM,2.79 µM
CC(C)CC(NC(=O)c1cccc(O)c1O)C(=O)NCc1cc(CNC(=O)C(CC(C)C)NC(=O)c2cccc(O)c2O)cc(CNC(=O)C(CC(C)C)NC(=O)c2cccc(O)c2O)c1 (centres undefined),,69.5 µM,,,,> 100 µM,,16.8 µM,,> 100 µM,,> 100 µM,,38.6 µM,,20.9 µM,,47.3 µM,,29.5 µM
O=C1c2ccccc2C(Br)(Br)c2ccccc21,,> 100 µM,,,,> 31.6 µM,,> 31.6 µM,,> 100 µM,,> 31.6 µM,,> 31.6 µM,,> 100 µM,,> 31.6 µM,,> 31.6 µM
Cc1ccc(SC(CCC(Sc2ccc(C)cc2)Sc2ccc(C)cc2)Sc2ccc(C)cc2)cc1,,> 100 µM,,,,> 100 µM,,> 100 µM,,> 100 µM,,> 100 µM,,> 100 µM,,> 100 µM,,> 100 µM,,> 100 µM
Oc1[nH]c2ccccc2c1N=Nc1ccccn1,,> 100 µM,,> 100 µM,,35.6 µM,,78.8 µM,,26.3 µM,,> 100 µM,,> 100 µM,,,,> 100 µM,,46.6 µM
Cc1nn(-c2nc3ccccc3[nH]2)c(N)c1-c1ccc(Cl)cc1,,,4.6 µM,> 100 µM,2.96 µM,> 100 µM,4.04 µM,> 100 µM,4.36 µM,> 100 µM,5.65 µM,> 100 µM,,,5.89 µM,> 100 µM,4.14 µM,> 100 µM,3.18 µM,> 100 µM
OCc1ccc(-c2ccc(-c3ccc(CO)o3)[se]2)o1,,,42.5 µM,> 100 µM,> 72.7 µM,> 100 µM,53.4 µM,> 100 µM,55.8 µM,> 100 µM,> 100 µM,> 100 µM,> 40.8 µM,> 100 µM,> 100 µM,> 100 µM,> 100 µM,> 100 µM,> 76.4 µM,> 100 µM
COc1ccc(-c2cn[nH]c2-c2cc(OC)c3c(c2)OCO3)cc1,,,0.0267 µM,0.0838 µM,0.335 µM,11.3 µM,0.0555 µM,1.68 µM,0.423 µM,15.1 µM,0.854 µM,31 µM,0.181 µM,4.15 µM,0.193 µM,0.539 µM,2.97 µM,54.6 µM,0.321 µM,10.7 µM
[Cl-].[O-]/N=C(\c1ccccc1)c1ccccn1.[O-]/N=C(\c1ccccc1)c1ccccn1.[O-]/N=C(\c1ccccc1)c1ccccn1.[Sm+3],29.4 µM,> 100 µM,,,27.3 µM,> 100 µM,24.6 µM,75.3 µM,29.8 µM,> 100 µM,30 µM,87.3 µM,18.7 µM,79.9 µM,28.1 µM,75.2 µM,36 µM,> 100 µM,38 µM,> 100 µM
[Cl][Hg][Cl],19.9 µM,34.6 µM,15.7 µM,30.2 µM,15.7 µM,35.5 µM,,,21.6 µM,56.3 µM,18.1 µM,46.9 µM,16.7 µM,31.9 µM,18.3 µM,33.5 µM,17.9 µM,32 µM,6.25 µM,19.8 µM
Cc1cc2c(ccc3c(C)cc(=O)oc32)o1,,> 100 µM,,,,> 100 µM,,> 100 µM,,> 100 µM,,> 100 µM,,> 100 µM,,> 100 µM,,> 100 µM,,> 100 µM
COC(=O)N(C(=O)OC)C(C(=O)O)C(C)C (centres undefined),,> 100 µM,,,,> 100 µM,,> 100 µM,,> 100 µM,,> 100 µM,,> 100 µM,,> 100 µM,,> 100 µM,,> 100 µM
CO[C@H]1/C=C/O[C@@]2(C)Oc3c(C)c(O)c4c(c3C2=O)C(=O)C(/C=N/N(c2ccccc2)c2ccccc2)=C(NC(=O)/C(C)=C\C=C\[C@H](C)[C@H](O)[C@@H](C)[C@@H](O)[C@@H](C)[C@H](OC(C)=O)[C@@H]1C)C4=O,,,1.68 µM,3.09 µM,1.77 µM,3.44 µM,1.72 µM,3.42 µM,1.99 µM,4.21 µM,1.79 µM,3.37 µM,1.59 µM,3 µM,1.8 µM,3.56 µM,1.71 µM,3.27 µM,1.86 µM,3.4 µM
C=C1C(=O)O[C@@H]2C[C@@H](C)[C@@H]3C=CC(=O)[C@@]3(C)[C@@H](OC(=O)CC(=O)O[C@H]3[C@@H]4C(=C)C(=O)O[C@@H]4C[C@@H](C)[C@@H]4C=CC(=O)[C@]43C)[C@H]12,,0.32 µM,,0.144 µM,,0.361 µM,,,,0.0591 µM,,0.374 µM,,0.302 µM,,0.0781 µM,,1.73 µM,,0.149 µM
CN(C)CC(C)(C)C(=O)/C=C/c1ccc(/C=C/C(=O)C(C)(C)CN(C)C)cc1,,3.26 µM,,,,13.9 µM,,0.292 µM,,6.71 µM,,2.86 µM,,3.84 µM,,3.81 µM,,4.75 µM,,3.04 µM
